Reference: PMC4673936, “Design, Synthesis and Biological Evaluation of New 1, 4-Dihydropyridine (DHP) Derivatives as Selective Cyclooxygenase-2 Inhibitors” (Iranian Journal of Pharmaceutical Research : IJPR, 2015)

What was measured:
COX-1 = target: T1, COX-1 (Ovis aries, UniProt P05979); experiment: biochemical; details: ovine COX-1/COX-2 assay kit; mean of two determinations, deviation < 10% of mean
T1 construct: purchased Cayman chemical, MI, USA
T1 sequence (P05979 25-600): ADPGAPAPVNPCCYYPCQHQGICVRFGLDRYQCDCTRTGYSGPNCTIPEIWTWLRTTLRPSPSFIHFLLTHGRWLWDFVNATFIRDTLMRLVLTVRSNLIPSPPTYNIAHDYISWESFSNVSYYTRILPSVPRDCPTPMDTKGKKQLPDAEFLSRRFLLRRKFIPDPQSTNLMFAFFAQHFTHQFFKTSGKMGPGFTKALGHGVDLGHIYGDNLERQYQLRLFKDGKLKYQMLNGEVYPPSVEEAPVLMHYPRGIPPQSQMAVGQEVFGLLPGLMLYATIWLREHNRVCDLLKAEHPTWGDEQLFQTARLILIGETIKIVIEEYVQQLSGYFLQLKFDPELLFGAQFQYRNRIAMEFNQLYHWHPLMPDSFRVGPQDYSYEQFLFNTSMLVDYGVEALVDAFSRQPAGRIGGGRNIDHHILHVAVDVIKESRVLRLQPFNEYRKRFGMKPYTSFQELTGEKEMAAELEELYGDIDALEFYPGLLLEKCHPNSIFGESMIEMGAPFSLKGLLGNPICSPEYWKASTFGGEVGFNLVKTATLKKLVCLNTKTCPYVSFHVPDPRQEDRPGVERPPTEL
Description: (§1) A group of 1,4-dihydropyridine derivativespossessing a MeSO2 at the para-position of the C-4 phenyl ring, alkyl groups(R1) at the C-2 position and alkyloxycarbonyl groups(COOR2) at the C-3 position were prepared and evaluated for their ability to inhibit COX-1 and COX-2 using chemiluminescent kit (Cayman chemical, MI, USA) according to our previously reported method ([14]).

COX-2 = target: T2, COX-2 (Ovis aries, UniProt P79208); experiment: biochemical; assay type: biochemical; details: for COX-2 S.I. (in-vitro COX-2 selectivity index): COX-1 IC50/COX-2 IC50; for IC50: ovine COX-1/COX-2 assay kit, mean of two determinations, deviation < 10% of mean; for COX-2 inhibitory activity relative to compound 5e (in words): larger groups (propyl, phenyl) at C-2 position of compound 5e
T2 construct: purchased Cayman chemical, MI, USA
T2 sequence (P79208 17-603): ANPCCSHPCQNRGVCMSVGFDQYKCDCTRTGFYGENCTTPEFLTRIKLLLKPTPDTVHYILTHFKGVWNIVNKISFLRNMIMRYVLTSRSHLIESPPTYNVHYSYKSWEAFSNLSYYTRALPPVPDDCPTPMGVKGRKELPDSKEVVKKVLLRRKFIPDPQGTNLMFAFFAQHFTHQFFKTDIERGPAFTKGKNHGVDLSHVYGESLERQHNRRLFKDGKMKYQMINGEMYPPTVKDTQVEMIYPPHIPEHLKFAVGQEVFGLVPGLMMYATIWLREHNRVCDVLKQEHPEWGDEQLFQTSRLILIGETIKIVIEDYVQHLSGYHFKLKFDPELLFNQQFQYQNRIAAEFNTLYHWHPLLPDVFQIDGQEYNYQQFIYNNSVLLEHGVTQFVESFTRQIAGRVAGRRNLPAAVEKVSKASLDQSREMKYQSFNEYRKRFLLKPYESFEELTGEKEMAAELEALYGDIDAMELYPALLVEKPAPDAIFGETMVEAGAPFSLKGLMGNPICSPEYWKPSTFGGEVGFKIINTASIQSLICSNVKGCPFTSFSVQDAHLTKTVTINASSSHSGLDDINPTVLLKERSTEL
Description: as §1

| IC50 (COX-1) | COX-2 S.I. (in-vitro COX-2 selectivity index) (COX-2) | IC50 (COX-2) | melting point | COX-2 inhibitory activity relative to compound 5e (in words) (COX-2) | SMILES |
| --- | --- | --- | --- | --- | --- |
| 30.2 µM | 62.9 | 0.48 µM | 244 to 245 °C | – | COC(=O)C1=C(C)NC2=C(C(=O)CC(C)(C)C2)C1c1ccc(S(C)(=O)=O)cc1 (stereo not drawn) [Compound 5a, Methyl-1,4,5,6,7,8-hexahydro-2,7,7-trimethyl-4-(4-(methylsulfonyl)phenyl)-5-oxoquinoline-3-carboxylate] |
| 31 µM | 70.4 | 0.44 µM | – | – | COC(=O)C1=C(N)NC2=C(C(=O)CC(C)(C)C2)C1c1ccc(S(C)(=O)=O)cc1 (stereo not drawn) [Compound 5b, Methyl-2-amino-1,4,5,6,7,8-hexahydro-7,7-dimethyl-4-(4-(methylsulfonyl)phenyl)-5-oxo quinolone-3-carboxylate] |
| 30.7 µM | 52.1 | 0.59 µM | 186.5 to 188 °C | – | CCC1=C(C(=O)OC)C(c2ccc(S(C)(=O)=O)cc2)C2=C(CC(C)(C)CC2=O)N1 (stereo not drawn) [Compound 5c, Methyl-2-ethyl-1,4,5,6,7,8-hexahydro-7,7-dimethyl-4-(4-(methylsulfonyl)phenyl)-5-oxoquinoline-3-carboxylate] |
| 27.6 µM | – | 0.62 µM | – | – | COC(=O)C1=C(C(C)C)NC2=C(C(=O)CC(C)(C)C2)C1c1ccc(S(C)(=O)=O)cc1 (stereo not drawn) [Compound 5d] |
| 27.6 µM | 92.0 | 0.3 µM | 180.7 to 182.3 °C | – | CCOC(=O)C1=C(C)NC2=C(C(=O)CC(C)(C)C2)C1c1ccc(S(C)(=O)=O)cc1 (stereo not drawn) [Compound 5e, Ethyl-1,4,5,6,7,8-hexahydro-2,7,7-trimethyl-4-(4-(methylsulfonyl)phenyl)-5-oxoquinoline-3-carboxylate] |
| 25.2 µM | 18.2 | 1.38 µM | 163 to 164 °C | significant loss of activities | CCCC1=C(C(=O)OCC)C(c2ccc(S(C)(=O)=O)cc2)C2=C(CC(C)(C)CC2=O)N1 (stereo not drawn) [Compound 5f, Ethyl-1,4,5,6,7,8-hexahydro-7,7-dimethyl-4-(4-(methylsulfonyl)phenyl)-5-oxo-2-propylquinoline-3-carboxylate] |
| 46.1 µM | – | > 100 µM | 187.9 to 189 °C | significant loss of activities | CCOC(=O)C1=C(c2ccccc2)NC2=C(C(=O)CC(C)(C)C2)C1c1ccc(S(C)(=O)=O)cc1 (stereo not drawn) [Compound 5g, Ethyl-1,4,5,6,7,8-hexahydro-7,7-dimethyl-4-(4-(methylsulfonyl)phenyl)-5-oxo-2-phenylquinoline-3-carboxylate] |
| 25.5 µM | 63.7 | 0.4 µM | 163 to 164 °C | – | CC1=C(C(=O)OC(C)(C)C)C(c2ccc(S(C)(=O)=O)cc2)C2=C(CC(C)(C)CC2=O)N1 (stereo not drawn) [Compound 5h, t-Butyl-1,4,5,6,7,8-hexahydro-2,7,7-trimethyl-4-(4-methanesulfonyl-phenyl)-5-oxo-quinoline-3-carboxylate] |
| 22.9 µM | – | > 100 µM | 136.9 to 138.9 °C | – | CC1=C(C(=O)OCc2ccccc2)C(c2ccc(S(C)(=O)=O)cc2)C2=C(CC(C)(C)CC2=O)N1 (stereo not drawn) [Compound 5i] |
